Assay results taken from the supplement of paper PMC11061612.

Key:
[1] = test system: JHH-4 (Hepatocellular Carcinoma); assay: combination Emax (second highest fraction inhibited in the dose matrix, 72 h); higher = more inhibition; extreme values may be limits of the assay
Method in brief: (§1)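 Cell lines grown in DMEM/F12 or RPMI with 10% FBS were plated in 1536-well plates and held 24 hours at 37°C, 5% CO2 before 72 hours of exposure to two-drug dose matrices, with DMSO typically at 0.2%. CellTiter-Glo 2.0 luminescence gave viability, which was converted to inhibition. Vehicle wells were set to 0 and blank wells to 1. Combination Emax is the second-highest inhibition in the matrix, and Bliss excess is the observed combination effect minus the expected EA + EB − EA·EB, where EA and EB are the single-agent effects.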

[2] = test system: DMS-114 (Small Cell Lung Carcinoma); assay: Bliss excess, mean over the matrix (fraction); higher = more synergy
Method in brief: as §1

[3] = test system: KY821 (Acute Myeloid Leukemia); assay: as above
Method in brief: as §1

[4] = test system: KU812 (Chronic Myelogenous Leukemia); assay: as above
Method in brief: as §1

[5] = test system: ESO51 (Esophageal Adenocarcinoma); assay: as above
Method in brief: as §1

[6] = test system: SUP-B15 (B-Lymphoblastic Leukemia); assay: as above
Method in brief: as §1

[7] = test system: RD (Rhabdomyosarcoma); assay: as above
Method in brief: as §1

[8] = test system: MOG-G-CCM (Low Grade Glioma); assay: as above
Method in brief: as §1

[9] = test system: MN-60 (B-Lymphoblastic Leukemia); assay: as above
Method in brief: as §1

[10] = test system: NCI-H520 (Squamous Cell Lung Carcinoma); assay: as above
Method in brief: as §1

[11] = test system: NCI-H929 (Plasma Cell Myeloma); assay: as above
Method in brief: as §1

[12] = test system: SJSA-1 (Osteosarcoma); assay: as above
Method in brief: as §1

[13] = test system: PC-3 (Prostate Carcinoma); assay: as above
Method in brief: as §1

[14] = test system: KMS-12-BM (Plasma Cell Myeloma); assay: as above
Method in brief: as §1

[15] = test system: VMRC-RCZ (Kidney Carcinoma); assay: as above
Method in brief: as §1

[16] = test system: COR-L279 (Small Cell Lung Carcinoma); assay: as above
Method in brief: as §1

[17] = test system: M059J (Glioblastoma); assay: as above
Method in brief: as §1

[18] = test system: NCI-H661 (Non-Small Cell Lung Carcinoma); assay: as above
Method in brief: as §1

[19] = test system: IM-95 (Gastric Carcinoma); assay: as above
Method in brief: as §1

[20] = test system: 8505C (Thyroid Gland Carcinoma); assay: as above
Method in brief: as §1
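Throughout, for Bliss excess, mean over the matrix: after 72 h of two-drug dosing.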

SMILES | combination Emax [1] | Bliss excess [2] | Bliss excess [3] | Bliss excess [4] | Bliss excess [5] | Bliss excess [6] | Bliss excess [7] | Bliss excess [8] | Bliss excess [9] | Bliss excess [10] | Bliss excess [11] | Bliss excess [12] | Bliss excess [13] | Bliss excess [14] | Bliss excess [15] | Bliss excess [16] | Bliss excess [17] | Bliss excess [18] | Bliss excess [19] | Bliss excess [20]
CN(CCO)CC[C@H](CSc1ccccc1)Nc1ccc(S(=O)(=O)NC(=O)c2ccc(N3CCC([C@@H](O)c4ccccc4-c4ccc(Cl)cc4)CC3)cc2)cc1S(=O)(=O)C(F)(F)F [AZD4320] + CN(C)CCCOc1ccc(-c2ccc3ncc4c(c3c2)n(C2CCOCC2)c(=O)n4C)cn1 [AZD0156] (first compound max 1 µM, 7x7, partner max 1 µM) | 0.293 | -0.0466 | 0.002 | -0.0086 | -0.0095 | -0.0535 | -0.0172 | -0.0155 | 0.0032 | -0.0185 | -0.0267 | 0.0377 | -0.0266 | 0.0211 | -0.058 | 0.0041 | 0.0015 | -0.0232 | -0.0683 | -0.0014
CS(=O)(=O)CCNCc1ccc(-c2ccc3ncnc(Nc4ccc(OCc5cccc(F)c5)c(Cl)c4)c3c2)o1 [Lapatinib] + C[C@@H](Oc1cc(-c2cnn(C3CCNCC3)c2)cnc1N)c1c(Cl)ccc(F)c1Cl [Crizotinib] (first compound max 10 µM, 7x7, partner max 10 µM) | 0.546 | -0.017 | 0.0312 | -0.0598 | 0.0885 | 0.024 | -0.0253 | -0.102 | -0.0288 | -0.0975 | -0.062 | -0.017 | -0.0174 | 0.0256 | -0.0291 | -0.06 | -0.0733 | -0.0252 | 0.0467 | -0.0441
CN(C)CCCOc1ccc(-c2ccc3ncc4c(c3c2)n(C2CCOCC2)c(=O)n4C)cn1 [AZD0156] + O=C(c1cc(Cc2n[nH]c(=O)c3ccccc23)ccc1F)N1CCN(C(=O)C2CC2)CC1 [Olaparib] (first compound max 3 µM, partner max 3 µM) | 0.22 | -0.0425 | 0.0829 | 0.264 | 0.0292 | -0.0159 | 0.0333 | 0.0005 | -0.0615 | 0.0671 | 0.016 | 0.017 | -0.0088 | 0.0448 | -0.0283 | 0.0782 | 0.0304 | 0.0145 | -0.0093 | 0.066
CCN(CCO)CCCOc1ccc2c(Nc3cc(CC(=O)Nc4cccc(F)c4)[nH]n3)ncnc2c1 [AZD2811] + C=CCn1c(=O)c2cnc(Nc3ccc(N4CCN(C)CC4)cc3)nc2n1-c1cccc(C(C)(C)O)n1 [AZD1775] (first compound max 1 µM, partner max 1 µM) | 0.355 | -0.0129 | 0.0868 | -0.034 | -0.0002 | 0.044 | -0.0222 | -0.0178 | 0.0139 | -0.108 | -0.0671 | -0.0109 | -0.0117 | 0.122 | -0.0512 | 0.0107 | -0.0176 | -0.0029 | 0.0486 | -0.0071
CN(CCO)CC[C@H](CSc1ccccc1)Nc1ccc(S(=O)(=O)NC(=O)c2ccc(N3CCC([C@@H](O)c4ccccc4-c4ccc(Cl)cc4)CC3)cc2)cc1S(=O)(=O)C(F)(F)F [AZD4320] + CCN(CCO)CCCOc1ccc2c(Nc3cc(CC(=O)Nc4cccc(F)c4)[nH]n3)ncnc2c1 [AZD2811] (first compound max 1 µM, 7x7, partner max 1 µM) | 0.17 | -0.0398 | 0.162 | -0.0082 | 0.0025 | 0.0255 | 0.0335 | 0.0683 | -0.0231 | 0.0077 | -0.0119 | -0.0059 | -0.0127 | 0.0816 | -0.0508 | 0.051 | -0.004 | -0.0322 | 0.134 | 0.0545
NC1(C(=O)N[C@@H](CCO)c2ccc(Cl)cc2)CCN(c2ncnc3[nH]ccc23)CC1 [Capivasertib] + CCN(CCO)CCCOc1ccc2c(Nc3cc(CC(=O)Nc4cccc(F)c4)[nH]n3)ncnc2c1 [AZD2811] (first compound max 10 µM, 7x7, partner max 1 µM) | 0.226 | 0.0039 | 0.052 | 0.0173 | -0.0363 | -0.103 | -0.0211 | -0.0373 | -0.0095 | -0.004 | 0.025 | -0.0297 | 0.0151 | 0.0502 | -0.046 | -0.054 | -0.0328 | -0.0058 | -0.0168 | 0.0134
Cc1cc2ncnn2cc1Nc1ncc2c(n1)n(C1CCOCC1)c(=O)n2C [AZD7648] + CCN(CCO)CCCOc1ccc2c(Nc3cc(CC(=O)Nc4cccc(F)c4)[nH]n3)ncnc2c1 [AZD2811] (first compound max 10 µM, 7x7, partner max 1 µM) | 0.245 | 0.0309 | 0.139 | 0.0578 | -0.0098 | -0.0667 | -0.0243 | 0.0246 | -0.0061 | 0.0195 | -0.0223 | 0.0601 | -0.0346 | 0.0266 | 0.0038 | -0.0803 | -0.0551 | 0.0564 | 0.0835 | 0.0059
COc1nnc2ccc(N3CCC(c4ccc(OCCN5CCN(C)C(=O)[C@H]5C)cc4)CC3)nn12 [AZD5153] + Cn1cnc2c(F)c(Nc3ccc(Br)cc3Cl)c(C(=O)NOCCO)cc21 [Selumetinib] (first compound max 1 µM, 7x7, partner max 10 µM) | 0.906 | 0.0443 | 0.0027 | 0.0272 | -0.0408 | 0.101 | 0.0333 | -0.0198 | -0.0593 | 0.0319 | -0.0068 | -0.0377 | -0.0598 | -0.0114 | -0.0486 | -0.0778 | -0.0635 | -0.0027 | 0.0649 | 0.0049
Cn1cnc2c(F)c(Nc3ccc(Br)cc3Cl)c(C(=O)NOCCO)cc21 [Selumetinib] + CCN(CCO)CCCOc1ccc2c(Nc3cc(CC(=O)Nc4cccc(F)c4)[nH]n3)ncnc2c1 [AZD2811] (first compound max 10 µM, 7x7, partner max 1 µM) | 0.63 | -0.0166 | 0.05 | -0.0731 | 0.0567 | 0.0553 | -0.0016 | -0.0745 | -0.0202 | -0.0221 | 0.01 | -0.0705 | -0.057 | 0.0832 | -0.0501 | -0.0243 | -0.033 | -0.0645 | 0.0874 | -0.0546
Cc1c2c(nn1C)CSCc1cc(n(C)n1)CSc1cc(c3ccccc3c1)OCCCc1c(C(=O)O)n(C)c3c-2c(Cl)ccc13 [AZD5991] + CCN(CCO)CCCOc1ccc2c(Nc3cc(CC(=O)Nc4cccc(F)c4)[nH]n3)ncnc2c1 [AZD2811] (first compound max 1 µM, 7x7, partner max 1 µM) | 0.315 | 0.0287 | 0.0053 | -0.0519 | 0.0031 | 0.0125 | 0.0268 | 0.0013 | 0.0086 | 0.0632 | 0.0409 | 0.0839 | -0.0328 | 0.0257 | 0.016 | 0.0162 | -0.0074 | 0.0328 | 0.0605 | 0.119
CC1(C)CCC(CN2CCN(c3ccc(C(=O)NS(=O)(=O)c4ccc(NCC5CCOCC5)c([N+](=O)[O-])c4)c(Oc4cnc5[nH]ccc5c4)c3)CC2)=C(c2ccc(Cl)cc2)C1 [Venetoclax] + C[C@@H]1COCCN1C2=NC(=NC(=C2)C3(CC3)[S@](=N)(=O)C)C4=C5C=CNC5=NC=C4 [AZD6738] (first compound max 1 µM, 7x7, partner max 10 µM) | 0.254 | -0.0338 | -0.0336 | -0.0055 | -0.0093 | 0.0383 | 0.002 | -0.045 | 0.0434 | -0.0733 | -0.0567 | -0.0447 | -0.035 | -0.012 | -0.0262 | 0.0287 | -0.0258 | -0.0698 | -0.0191 | -0.0219
Cn1cnc2c(F)c(Nc3ccc(Br)cc3Cl)c(C(=O)NOCCO)cc21 [Selumetinib] + C[C@@H]1COCCN1C2=NC(=NC(=C2)C3(CC3)[S@](=N)(=O)C)C4=C5C=CNC5=NC=C4 [AZD6738] (first compound max 10 µM, 7x7, partner max 10 µM) | 0.752 | -0.0395 | -0.0519 | -0.0779 | 0.0119 | 0.142 | 0.0877 | -0.0704 | -0.0319 | -0.0804 | -0.121 | 0.0241 | -0.036 | 0.0112 | -0.0594 | -0.0377 | -0.056 | -0.0627 | 0.0554 | 0.111
Cc1c2c(nn1C)CSCc1cc(n(C)n1)CSc1cc(c3ccccc3c1)OCCCc1c(C(=O)O)n(C)c3c-2c(Cl)ccc13 [AZD5991] + C=CCn1c(=O)c2cnc(Nc3ccc(N4CCN(C)CC4)cc3)nc2n1-c1cccc(C(C)(C)O)n1 [AZD1775] (first compound max 1 µM, partner max 1 µM) | 0.545 | -0.0295 | -0.0329 | -0.0284 | 0.011 | 0.0171 | 0.04 | -0.0287 | -0.0077 | 0.0221 | 0.0023 | 0.0115 | 0.0111 | -0.0082 | 0.0212 | -0.0632 | -0.0191 | 0.0429 | 0.0201 | 0.0256
CN(C)CCCOc1ccc(-c2ccc3ncc4c(c3c2)n(C2CCOCC2)c(=O)n4C)cn1 [AZD0156] + CCN(CCO)CCCOc1ccc2c(Nc3cc(CC(=O)Nc4cccc(F)c4)[nH]n3)ncnc2c1 [AZD2811] (first compound max 1 µM, 7x7, partner max 1 µM) | 0.095 | -0.0209 | 0.147 | -0.0158 | -0.0147 | -0.0595 | -0.0374 | -0.0228 | -0.016 | 0.0012 | 0.0125 | -0.0348 | -0.0243 | 0.13 | -0.0451 | 0.0256 | -0.0165 | -0.0304 | 0.0925 | -0.0257
